# Experiments:
# A549 = experiment: Cytotoxicity against human A549 cells assessed as inhibition of cell growth by MTT assay; format: functional, cell-based
# MCF7 = experiment: Cytotoxicity against human MCF7 cells assessed as inhibition of cell growth by MTT assay; format: functional, cell-based
# [1] = Inhibition of Klebsiella pneumoniae beta Metallo-beta-lactamase IMP-28
# HEK293 = experiment: Antiproliferative activity against human HEK293 cells assessed as inhibition of cell growth measured after 48 hrs by MTT assay; format: functional, cell-based; settings: HEK293, 48 h
# Tubulin = experiment: Inhibition of tubulin (unknown origin) polymerization incubated for 5 mins by spectrophotometer analysis; format: protein-complex assay, Homo sapiens
# [2] = Anti-keratosis activity in vitamin-A-deficient hamster trachea in presence of beta-lactamase; format: functional, tissue-based, Cricetulus griseus
# CCRF-CEM = experiment: Cytotoxicity against human CEM cells assessed reduction in cell viability; format: functional, cell-based
# L1210 = experiment: Cytotoxicity against mouse L1210 cells assessed as reduction in cell viability; format: functional, cell-based
# Heat shock protein HSP90 = Heat shock protein HSP90 (Homo sapiens, UniProt P07900+P08238); experiment: Inhibition of HSP90 (unknown origin); format: protein assay
# HT-1080 = experiment: Cytotoxicity against human HT-1080 cells assessed reduction in cell viability; format: functional, cell-based
compound,measurement,setting,value
CC(O)C1C(=O)NC1OC(=O)/C=C/c1ccc(N)cc1 (centres undefined),IC50,A549,1.59 µM
same,IC50,MCF7,1.59 µM
O=C(OCc1ccccc1)[C@H]1[C@@H](Cc2ccc(O)cc2)C(=O)N1C(=O)c1ccccc1,IC50,[1],0.34 µM
C[C@H](CCC(=O)OCc1cn([C@@H]2C(=O)N(CCN3C(=O)[C@@H](n4cc(COC(=O)CC[C@@H](C)[C@H]5CC[C@H]6[C@@H]7CC[C@@H]8C[C@H](O)CC[C@]8(C)[C@H]7C[C@H](O)[C@]56C)nn4)[C@H]3c3ccccc3)[C@@H]2c2ccccc2)nn1)[C@H]1CC[C@H]2[C@@H]3CC[C@@H]4C[C@H](O)CC[C@]4(C)[C@H]3C[C@H](O)[C@]12C,IC50,HEK293,> 1000 µM
C[C@H](CCC(=O)NCc1cn([C@@H]2C(=O)N(CCN3C(=O)[C@@H](n4cc(CNC(=O)CC[C@@H](C)[C@H]5CC[C@H]6[C@@H]7CC[C@@H]8C[C@H](O)CC[C@]8(C)[C@H]7C[C@H](O)[C@]56C)nn4)[C@H]3c3ccccc3)[C@@H]2c2ccccc2)nn1)[C@H]1CC[C@H]2[C@@H]3CC[C@@H]4C[C@H](O)CC[C@]4(C)[C@H]3C[C@H](O)[C@]12C,IC50,HEK293,500 µM
O=C(O)c1ccc(COC(=O)[C@H]2[C@@H](Cc3ccccc3)C(=O)N2C(=O)Cc2cccc(C(=O)OCc3ccccc3)c2)cc1,IC50,[1],0.34 µM
CC(O)C1C(=O)NC1OC(=O)/C=C/c1ccccc1 (centres undefined),IC50,A549,1.59 µM
same,IC50,MCF7,1.59 µM
C[C@H](CCC(=O)NCc1cn([C@@H]2C(=O)N(CCN3C(=O)[C@@H](n4cc(CNC(=O)CC[C@@H](C)[C@H]5CC[C@H]6[C@@H]7[C@H](O)C[C@@H]8C[C@H](O)CC[C@]8(C)[C@H]7C[C@H](O)[C@]56C)nn4)[C@H]3c3ccccc3)[C@@H]2c2ccccc2)nn1)[C@H]1CC[C@H]2[C@@H]3CC[C@@H]4C[C@H](O)CC[C@]4(C)[C@H]3C[C@H](O)[C@]12C,IC50,HEK293,100 µM
CC(O)C1C(=O)NC1OC(=O)/C=C/c1ccc(Br)cc1 (centres undefined),IC50,A549,1.59 µM
same,IC50,MCF7,1.59 µM
CC(O)C1C(=O)NC1OC(=O)/C=C/c1ccc(Cl)cc1 (centres undefined),IC50,A549,1.59 µM
same,IC50,MCF7,1.59 µM
C[C@H](CCC(=O)OCc1cn([C@@H]2C(=O)N(CCN3C(=O)[C@@H](n4cc(COC(=O)CC[C@@H](C)[C@H]5CC[C@H]6[C@@H]7[C@H](O)C[C@@H]8C[C@H](O)CC[C@]8(C)[C@H]7C[C@H](O)[C@]56C)nn4)[C@H]3c3ccccc3)[C@@H]2c2ccccc2)nn1)[C@H]1CC[C@H]2[C@@H]3CC[C@@H]4C[C@H](O)CC[C@]4(C)[C@H]3C[C@H](O)[C@]12C,IC50,HEK293,10 µM
COc1cc(N2C(=O)[C@H](c3cccs3)[C@H]2c2cccc(N=[N+]=[N-])c2)cc(OC)c1OC,IC50,Tubulin,2.26 µM
O=C(OCc1ccccc1)c1cccc(CC(=O)N2C(=O)[C@H](Cc3ccccc3)[C@@H]2C(=O)OCc2ccccc2)c1,IC50,[1],0.34 µM
O=C(OCc1ccccc1)c1cccc(CC(=O)N2C(=O)[C@H](Cc3ccc(O)cc3)[C@@H]2C(=O)OCc2ccccc2)c1,IC50,[1],0.34 µM
COc1ccc(/C=C/C(=O)OC2NC(=O)C2C(C)O)cc1 (centres undefined),IC50,A549,1.59 µM
same,IC50,MCF7,1.59 µM
CC1=C(/C=C/C(C)=C/C=C/C(C)=C/C(=O)OCC2=C(C(=O)O)N3C(=O)[C@@H](NC(=O)COc4ccccc4)[C@H]3[S+]([O-])C2)C(C)(C)CCC1 (some centres undefined),EC50,[2],0.0391 nM
Cc1cn(CCCN2C(=O)C(OCc3ccccc3)C2c2ccc(Br)cc2)c(=O)n(CCCN2C(=O)C(OCc3ccccc3)C2c2ccc(Br)cc2)c1=O (centres undefined),IC50,CCRF-CEM,3.4 µM
same,IC50,L1210,4.1 µM
CCc1cc([C@@H]2CC(=O)N2c2ccc3c(c2)OCCO3)c(O)cc1O,IC50,Heat shock protein HSP90,5.6 µM
C=C(C)[C@H](C(=O)OC(c1ccccc1)c1ccccc1)N1C(=O)/C(=C/C(=O)OC(C)(C)C)[C@H]1SSc1nc2ccccc2s1,IC50,HT-1080,0.4 µM

# From ChEMBL document CHEMBL5233253, “β-Lactams as promising anticancer agents: Molecular hybrids, structure activity relationships and potential targets” (Eur J Med Chem, 2020)
